Assay results published in patent US6413937B1, “Combinations for use in increasing the potency of a substrate for multidrug resistance related protein” (Dublin City University and Enterprise Ireland, priority 1996, dated 2002).

Tests used:
DLKP cell line = experiment: miniaturised in vitro colorimetric cell survival assay (acid phosphatase end-point), DLKP; format: cell-based, human
Procedure: (§1) All the results presented in this Example for the DLKP, A549 and OAW42-SR cell lines were derived using the same miniaturised in vitro calorimetric assay system. On Day 1 of the assay 1000 cells/well/100 μl were plated into 96-well plates. Cells were allowed to attach overnight and cell viability was visually assessed. […] NSAID plus chemotherapeutic drug) to be analysed were added onto the cells. The individual drugs were added separately in 50 μl quantities (4× stocks, to take into account the dilution effect of having 200 μl final volume in each well). The drugs were left on the cells for five further days (Day 7) and cell number was determined using the acid phosphatase end-point assay which uses p-nitrophenol phosphate as substrate (Martin, A. and Clynes, M. (1991) In Vitro Dev. Biol., 27A, 183-184). On Day 7 the culture medium was removed from the cells and they were washed once with phosphate buffered saline (PBS). […] After the incubation period 50 μl of 1N NaOH was added to each well to develop the colour. The plates were then read at 405 nm (reference 620 nm) on an ELISA plate-reader. […] All results are the cell survival means ±S.D. from a minimum of three experiments.

A549 cell line = experiment: miniaturised in vitro colorimetric cell survival assay (acid phosphatase end-point), A549; format: cell-based, human; conditions: for % cell survival: alone or + Adriamycin 20 ng/ml
Procedure: as §1

OAW42-SR cell line = experiment: miniaturised in vitro colorimetric cell survival assay, LRP overexpressing OAW42-SR; format: cell-based, human; conditions: vi) Adriamycin 147 ng/ml alone
Procedure: All the results presented in this Example for the DLKP, A549 and OAW42-SR cell lines were derived using the same miniaturised in vitro calorimetric assay system. On Day 1 of the assay 1000 cells/well/100 μl were plated into 96-well plates. Cells were allowed to attach overnight and cell viability was visually assessed. On Day 2 the two drugs (i.e. NSAID plus chemotherapeutic drug) to be analysed were added onto the cells. The individual drugs were added separately in 50 μl quantities (4× stocks, to take into account the dilution effect of having 200 μl final volume in each well). The drugs were left on the cells for five further days (Day 7) and cell number was determined using the acid phosphatase end-point assay which uses p-nitrophenol phosphate as substrate (Martin, A. and Clynes, M. (1991) In Vitro Dev. Biol., 27A, 183-184). On Day 7 the culture medium was removed from the cells and they were washed once with phosphate buffered saline (PBS). […] After the incubation period 50 μl of 1N NaOH was added to each well to develop the colour. The plates were then read at 405 nm (reference 620 nm) on an ELISA plate-reader. […] All results are the cell survival means ±S.D. from a minimum of three experiments.

SP2 mouse myeloma cells = experiment: mouse tumour model, survival of Balb/c mice injected with SP2 cells; format: in vivo; conditions: groups of 8 Balb/c mice; i.p. once a day, five days a week; adriamycin 0.25 mg/kg, tolmetin 70 mg/kg; after 32 days
Procedure: The in vivo relevance of our findings was studied using a mouse tumour model. SP2 tumour cells were injected into 4 groups of mice. Groups of 8 male Balb/c mice 8 weeks old were maintained on normal diets. Animals were injected with 2 million SP2 mouse myeloma cells on day 1. On day 3 intraperitoneal injection with adriamycin, tolmetin or a combination of the two was begun. This continued once a day, five days a week for a total of 32 days. The agents were dissolved in PBS and prepared freshly twice per week. The animals were weighed and the average weight of the group was used to calculate the required concentration of the drugs. Adriamycin was administered to give a final concentration of 0.25 mg/kg, the tolmetin dose was 70 mg/kg. […] The results were expressed as the number of animals alive each day as a percentage of the original number of animals alive.
Group 1 received injections of the vehicle (PBS) alone, group 2, adriamycin at 0.25 mg/kg, group 3, tolmetin at 70 mg/kg and group 4 received both agents (adriamycin, 0.25 mg/kg and tolmetin, 70 mg/kg). After 32 days there were clear differences in the % survival between the groups (FIG. 5). […] Two mice remained in the adriamycin group but 5 survived to the end of the experiment from the combination group (group 4).

COR L23 R (MRP+) cells = conditions: doxorubicin 10 mg/ml alone or with sulindac 20 mg/ml, 1, 2, 4 h, FIG. 3
Procedure: (§2) 10^6 COR L23 P (parental non-MRP resistant, MRP−) or COR L23 R (MRP resistant, MRP+) cells were added to 75 cm^3 vented flasks containing HEPES buffered Rosemount Park Memorial Institute (RPMI) medium and maintained at 37° C. in a 5% CO2 atmosphere. […] After three days of growth, doxorubicin (final concentration 10 mg/ml), sulindac (final concentration 20 mg/ml) or doxorubicin and sulindac were added to individual flasks. Samples were taken after 1, 2 and 4 h. and assayed for drug content.
(§3) The contents of each flask were washed twice with 5 ml of PBS and stored at −70° C. The flasks were thawed and 100 μl of water and 100 μl of 33% silver nitrate added to each and mixed for 5 min. […]
(§4) The extract was resuspended in 50 μl of methanol in the sample vial and loaded into the HPLC autosampler. […] The mobile phases were pumped through a C18 reversed-phase Ultrasphere XL (Beckman) HPLC column (4.6×70 mm) with absorbance measured at 253 nm. […] The amount of doxorubicin and sulindac present was quantified by measuring the peak height of these drugs and the internal standard. […] The concentration of doxorubicin in the samples was calculated from the) nd development standard line using the peak height ratio. The sulindac concentrations were calculated by the same method.

[1] = system: COR L23 P (non-MRP) cells; conditions: doxorubicin 10 mg/ml alone or with sulindac 20 mg/ml, 1, 2, 4 h, FIG. 4
Procedure: as §2, §3, §4

MRP pump = target: T1, MRP pump (Homo sapiens, UniProt P33527); experiment: ATP-dependent transport of [3H]LTC4 into inside-out plasma membrane vesicles from HL60ADR cells; format: biochemical
T1 construct: inside-out plasma membrane vesicles prepared from HL60ADR cells; endogenous in cells; host or cells: HL60ADR cells (plasma membrane vesicles)
T1 sequence (P33527 whole entry): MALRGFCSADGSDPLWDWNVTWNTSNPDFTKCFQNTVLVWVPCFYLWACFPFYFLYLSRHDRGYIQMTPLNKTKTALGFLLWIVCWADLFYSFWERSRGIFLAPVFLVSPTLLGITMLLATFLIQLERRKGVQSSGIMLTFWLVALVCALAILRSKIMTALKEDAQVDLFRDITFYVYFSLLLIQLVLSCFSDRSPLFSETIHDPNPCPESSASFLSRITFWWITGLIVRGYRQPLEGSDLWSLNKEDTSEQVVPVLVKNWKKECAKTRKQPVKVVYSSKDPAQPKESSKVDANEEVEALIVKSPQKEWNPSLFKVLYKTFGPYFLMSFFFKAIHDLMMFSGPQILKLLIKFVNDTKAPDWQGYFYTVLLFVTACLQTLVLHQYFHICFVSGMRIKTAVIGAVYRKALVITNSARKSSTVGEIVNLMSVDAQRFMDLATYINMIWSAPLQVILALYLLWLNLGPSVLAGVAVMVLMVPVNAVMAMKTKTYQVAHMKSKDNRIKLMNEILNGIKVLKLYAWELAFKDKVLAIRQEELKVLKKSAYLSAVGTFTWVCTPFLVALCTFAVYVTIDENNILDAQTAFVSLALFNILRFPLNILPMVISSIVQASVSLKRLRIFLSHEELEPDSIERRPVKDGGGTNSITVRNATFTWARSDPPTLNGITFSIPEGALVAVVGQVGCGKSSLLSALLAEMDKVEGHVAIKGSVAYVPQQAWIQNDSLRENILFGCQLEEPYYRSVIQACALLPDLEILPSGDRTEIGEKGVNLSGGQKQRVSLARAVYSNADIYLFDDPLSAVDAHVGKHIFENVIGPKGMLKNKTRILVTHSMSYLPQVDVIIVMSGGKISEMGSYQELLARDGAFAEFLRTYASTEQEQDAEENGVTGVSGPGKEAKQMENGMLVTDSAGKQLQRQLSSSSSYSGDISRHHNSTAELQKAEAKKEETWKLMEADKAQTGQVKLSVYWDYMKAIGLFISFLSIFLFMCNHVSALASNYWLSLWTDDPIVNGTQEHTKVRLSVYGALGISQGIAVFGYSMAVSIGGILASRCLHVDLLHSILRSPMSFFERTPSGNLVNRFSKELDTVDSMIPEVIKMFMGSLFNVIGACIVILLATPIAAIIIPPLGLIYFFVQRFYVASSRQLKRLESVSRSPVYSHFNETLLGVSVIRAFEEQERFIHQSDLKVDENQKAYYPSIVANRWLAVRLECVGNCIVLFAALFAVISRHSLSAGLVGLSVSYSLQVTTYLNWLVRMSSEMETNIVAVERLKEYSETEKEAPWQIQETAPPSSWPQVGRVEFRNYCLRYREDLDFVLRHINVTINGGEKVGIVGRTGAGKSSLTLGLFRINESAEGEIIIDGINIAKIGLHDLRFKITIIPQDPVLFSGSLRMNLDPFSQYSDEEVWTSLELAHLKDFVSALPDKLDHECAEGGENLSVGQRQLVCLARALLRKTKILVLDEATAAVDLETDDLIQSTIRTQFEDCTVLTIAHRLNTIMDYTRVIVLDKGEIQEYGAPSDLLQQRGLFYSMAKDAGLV
Procedure: To determine if the NSAIDs were acting directly on the MRP pump the uptake of [^3H]LTC4 into inside-out plasma membrane vesicles prepared from HL60ADR cells was examined using a rapid filtration procedure (Ishikawa,T., et al. (1994); J. Biol. Chem. 269 (46); 29085-29093). ATP-dependent transport of [^3H]LTC4 into the membrane vesicles was measured by a rapid filtration method using a Millipore sampling manifold. The membrane vesicles were thawed at 37° C. before use and kept on ice. The reaction components consisted of 0.25 M sucrose/10 mM Tris.HCl pH 7.4/1 mM ATP/10 mM MgCl2/10 mM creatine phosphate/ 110 μg/ml creatine kinase and 10 nM [^3H]LTC4, with 50 μg of the inside-out vesicle preparation, in a final volume of 110 μl. This suspension was incubated at 37° C., with gentle mixing, and aliquots, 20 μl, were taken at the indicated points. Those aliquots were diluted in 1 ml of ice-cold incubation buffer before being applied to 0.22 μm Millipore GSWP nitrocellulose filters, pre-soaked in ice-cold incubation buffer, under suction. The filters were subsequently washed with 3 ml ice-cold incubation buffer, and absorbed radioactivity was measured using a scintillation counter (Beckman). In control experiments ATP was replaced with 5μ-AMP to determine the ATP-dependent transport.

[2] = system: GST prepared from DLKP cells; experiment: total GST assay with 1-chloro-2,4-dinitrobenzene; format: biochemical, human; conditions: 0.4 mM
Procedure: The other NSAIDs were tested in a total GST assay (Habig, W. H., and Jakoby, W. B., (1981); Methods Enzymol., 77: 218-231). Total cellular GST activity was assayed, using 1-chloro-2,4-dinitrobenzene as a substrate, according to the method of Habig, W. H., and Jakoby, W. B., (1981); supra. Due to spectrophotometric interference at 340 nm, caused by the majority of the NSAIDs, the assays were all performed at 360 nm, without any apparent effect on the rate of the control reaction The results are shown in Table 5.

MRP-specific substrates = experiment: screen for enhancement of toxicity of MRP substrates by NSAIDs; format: cell-based; conditions: summary statements
HL-60ADR cells = experiment: etoposide-induced apoptosis (nuclear fragmentation), HL-60ADR; format: cell-based; conditions: HL-60ADR (resistant); etoposide alone or co-treated with sulindac; FIG. 1
Procedure: An experiment was carried out to determine the effect of the NSAID sulindac on etoposide-induced apoptosis in two cell lines, namely HL-60S and HL-60ADR. These cell lines were donated by Dr. Melvin Center, Kansas State University, Manhattan Kans. 66506, U.S.A. For the HL-60S and ADR cell lines the percentage of apoptotic cells within the cell population, following drug exposure, was used to quantify toxicity. Cells were plated in fresh medium at a concentration of 10^6 cells/ml in a 24-well plate (Greiner) and drugs were then added to the wells. A 200 μl sample from each well was taken after 4 and 8 hrs. Samples were cytospun for 2 min at 500 rpm using a Shandon Cytofuge3. After air-drying the cytospins were stained using a Romanowsky staining kit, Rappi-Diff II (Langanbach), dried and mounted in DPX (BDH). Slides were studied on an Optiphot microscope (Nikon) fitted with a 40× objective, and visualised on a monitor via a Mitsubishi CCD-100E colour CCD-camera and a 0.6× relay lens. Nuclear fragmentation was used as a morphological marker for apoptosis and a minimum of 200 cells were assessed in at least three different microscopic fields. Results were expressed as the percentage of apoptotic cells within the population. Each experiment was repeated in duplicate.

DLKP-A cell line = experiment: miniaturised in vitro colorimetric cell survival assay, P-170 overexpressing DLKP-A; format: cell-based, human; conditions: v) Vincristine 1.0 μg/ml alone
Procedure: All the results presented in this Example for the DLKP, A549 and OAW42-SR cell lines were derived using the same miniaturised in vitro calorimetric assay system. On Day 1 of the assay 1000 cells/well/100 μl were plated into 96-well plates. Cells were allowed to attach overnight and cell viability was visually assessed. On Day 2 the two drugs (i.e. NSAID plus chemotherapeutic drug) to be analysed were added onto the cells. The individual drugs were added separately in 50 μl quantities (4× stocks, to take into account the dilution effect of having 200 μl final volume in each well). The drugs were left on the cells for five further days (Day 7) and cell number was determined using the acid phosphatase end-point assay which uses p-nitrophenol phosphate as substrate (Martin, A. and Clynes, M. (1991) In Vitro Dev. Biol., 27A, 183-184). On Day 7 the culture medium was removed from the cells and they were washed once with phosphate buffered saline (PBS). After washing, 100 μl of freshly prepared substrate-containing buffer (0.1% Triton X-100 in 0.1M sodium acetate, pH 5.5) was added to each well and the plates were left in an incubator at 37° C. for 2 h. After the incubation period 50 μl of 1N NaOH was added to each well to develop the colour. The plates were then read at 405 nm (reference 620 nm) on an ELISA plate-reader.
In the results given below the % cell survival in the drug-free control is 100%. All results are the cell survival means ±S.D. from a minimum of three experiments.
v) is an example of a positive NSAID plus a positive drug on a P-170 overexpressing cell line: DLKP-A;

With `COc1cccc2c1C(=O)c1c(O)c3c(c(O)c1C2=O)C[C@@](O)(C(=O)CO)C[C@@H]3O[C@H]1C[C@H](N)[C@H](O)[C@H](C)O1` [Adriamycin, adriamycin] the “% cell survival” value (DLKP cell line; i) Adriamycin 10 ng/ml alone) was 60.35 ± 3.2%, the viability at 0.04 µg/mL (A549 cell line; Homo sapiens, A549, 120 h, ix) Adriamycin 40 ng/ml alone) was 54 ± 6.05% and the viability at 0.015 µg/mL (A549 cell line; Homo sapiens, A549, 120 h, viii) Adriamycin 15 ng/ml alone) was 61 ± 5.05%. It also gave a viability at 0.015 µg/mL (A549 cell line; Homo sapiens, A549, 120 h, x) Adriamycin 15 ng/ml alone) of 47 ± 5.15%, a viability at 0.04 µg/mL (A549 cell line; Homo sapiens, A549, 120 h, xi) Adriamycin 40 ng/ml alone) of 46 ± 5.05% and a viability at 0.015 µg/mL (A549 cell line; Homo sapiens, A549, 120 h, xii) Adriamycin 15 ng/ml alone) of 70.7 ± 4.25%. It also gave a viability at 0.015 µg/mL (A549 cell line; Homo sapiens, A549, 120 h, xiii) Adriamycin 15 ng/ml alone) of 68 ± 5.82%, a viability at 0.02 µg/mL (A549 cell line; Homo sapiens, A549, 120 h, xiv) Adriamycin 20 ng/ml alone) of 78 ± 3.95% and a viability at 0.015 µg/mL (A549 cell line; Homo sapiens, A549, 120 h, xv) Adriamycin 15 ng/ml alone) of 89 ± 11.9%. For the same molecule, the viability at 0.017 µg/mL (A549 cell line; Homo sapiens, A549, 120 h, xvi) Adriamycin 17 ng/ml alone) was 76.7 ± 5.4%, the “% cell survival” value (OAW42-SR cell line) was 47.41 ± 1.3% and the “mice surviving to the end of the experiment” value (SP2 mouse myeloma cells) was “Two”. For the same molecule, the “doxorubicin level in the cells” value (COR L23 R (MRP+) cells) was “less doxorubicin is found in the cells” and the “doxorubicin level in the cells” value [1] was “high levels of doxorubicin are found in the cell”.

With `Cc1ccc(C(=O)c2ccc(CC(=O)O)n2C)cc1` [Tolmetin, tolmetin] the “% cell survival” value (DLKP cell line; i) Tolmetin 6.25 μg/ml, alone or + Adriamycin 10 ng/ml) was 104.38 ± 6.8%, the “% cell survival” value (DLKP cell line; i) Tolmetin 12.5 μg/ml, alone or + Adriamycin 10 ng/ml) was 104.23 ± 6.2% and the “% cell survival” value (DLKP cell line; i) Tolmetin 25 μg/ml, alone or + Adriamycin 10 ng/ml) was 100.49 ± 7.3%. The “% cell survival” value (A549 cell line; xiv) Tolmetin 8.50 μg/ml) was 91.84 ± 10.99%, the “% cell survival” value (A549 cell line; xiv) Tolmetin 14.10 μg/ml) was 97.59 ± 9.85% and the “% cell survival” value (A549 cell line; xiv) Tolmetin 24.20 μg/ml) was 99.24 ± 10.35%. For the same molecule, the inhibition at 432 µM (MRP pump; 0.432 mM) was 22%, the inhibition at 863 µM (MRP pump; 0.863 mM) was 50% and the “% Inhibition of GST” value [2] was 55%. The “mice surviving to the end of the experiment” value (SP2 mouse myeloma cells) was “all but one from group 3 were dead” and the “enhancement of toxicity of MRP substrates” value (MRP-specific substrates) was “have been found to enhance the toxicity of MRP-specific substrates”.

With `COc1cc([C@@H]2c3cc4c(cc3[C@@H](O[C@@H]3O[C@@H]5CO[C@@H](C)O[C@H]5[C@H](O)[C@H]3O)[C@H]3COC(=O)[C@H]23)OCO4)cc(OC)c1O` [VP-16, etoposide] the “% cell survival” value (DLKP cell line; iii) VP-16 100 ng/ml alone) was 63.46 ± 1.4% and the “etoposide-induced apoptosis, percentage of apoptotic cells” value (HL-60ADR cells) was “only a basal level of apoptosis is seen”.

`CC[C@]1(O)C[C@H]2CN(CCc3c([nH]c4ccccc34)[C@@](C(=O)OC)(c3cc4c(cc3OC)N(C=O)[C@H]3[C@@](O)(C(=O)OC)[C@H](OC(C)=O)[C@]5(CC)C=CCN6CC[C@]43[C@@H]65)C2)C1` [Vincristine, vincristine] was tested, and the “% cell survival” value (DLKP cell line; ii) Vincristine 1.0 ng/ml alone) was 72.98 ± 3.5% and the “% cell survival” value (DLKP-A cell line) was 89.12 ± 1.3%.
